# Reference: PubChem BioAssay (NCI)
#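 Growth conditions: 96-well plates. Treatment: test compound, 48 hours, 5 concentrations. Analysis: linear interpolation between bracketing concentrations; unreached endpoints set to highest concentration. GI50: concentration for 50% inhibition of growth. At the TGI there is no net growth.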
# Legend:
# Assay in all cases: inhibition of tumour cell growth, NCI panel, 48 h
# [1] = tested on: SF-295 CNS
# [2] = tested on: NCI-H522 lung
# [3] = tested on: SF-268 CNS
# [4] = tested on: RXF 393 renal
# [5] = tested on: SK-OV-3 ovarian
# [6] = tested on: NCI-H460 lung
# [7] = tested on: MALME-3M melanoma
# [8] = tested on: SK-MEL-2 melanoma
# [9] = tested on: NCI/ADR-RES ovarian
# [10] = tested on: PC-3 prostate
SMILES,TGI [1] [µM],TGI [2] [µM],TGI [3] [µM],TGI [4] [µM],TGI [5] [µM],TGI [6] [µM],TGI [7] [µM],TGI [8] [µM],GI50 [9] [µM],TGI [9] [µM],GI50 [1] [µM],GI50 [2] [µM],GI50 [3] [µM],GI50 [4] [µM],GI50 [5] [µM],GI50 [6] [µM],GI50 [10] [µM],TGI [10] [µM],GI50 [8] [µM]
O=C(O)C1=C(O)C(C(=O)O)C23CCCCCCCCCCC12C(C(=O)O)C(O)=C3C(=O)O (configuration not stated),> 100,> 100,> 100,> 100,> 100,> 100,> 100,> 100,,,,,,,,,,,
O/N=C1/C(=C/c2ccc3c(c2)OCO3)CCCC1C(NO)c1ccc2c(c1)OCO2 (configuration not stated),,40.2,> 100,55,94,71.1,48.2,48.1,,,,,,,,,,,
O=C(NCCCCNc1cccccc1=O)OCc1ccccc1,> 100,> 100,> 100,,> 100,> 100,> 100,> 100,,,,,,,,,,,
COC(=O)NC(=O)c1cn(C2OC(CO)C(O)C2O)c(=O)[nH]c1=O (configuration not stated),> 100,> 100,> 100,,> 100,> 100,> 100,> 100,,,,,,,,,,,
CC1(C)O[C@H]2[C@H](O)C[C@](O)(CO)C[C@H]2O1,> 100,> 100,,> 100,> 100,> 100,> 100,> 100,,,,,,,,,,,
O=C(COc1ccc(Cl)cc1)N1N=C(c2ccc(Cl)cc2)CC1(O)c1ccccc1 (configuration not stated),82,50.2,> 100,,> 63.6,35.7,47.4,80.7,,,,,,,,,,,
CCCCCCCCCCCc1nnc(N)o1,> 100,> 100,> 100,,> 100,> 100,> 100,> 100,,,,,,,,,,,
N=C1C(c2nc3ccccc3s2)=C(O)CN1c1ccc(F)c(Cl)c1,> 100,63.2,> 100,33.9,> 100,> 100,,> 100,26.9,80.6,18.8,11.5,22,7.38,25.3,17.5,4.04,30.8,39
COC12C=C/C(=C(/C(=O)OCc3cncnc3)C(=O)CCCCCCCCC3(OC)C=C/C(=C(/C(=O)OCc4cncnc4)C(=O)CCCCCCCC1)O3)O2,1.74,0.408,4,0.714,5.31,1.91,,18.1,0.609,> 50,0.326,0.137,0.312,0.199,1.23,0.71,,,1.13
C=C(CN1C(=O)CN(C)C1=O)c1ccc(C(=O)Nc2ccccc2N)cc1,> 100,36.2,> 100,67.2,9.96,> 100,,> 100,12.5,> 100,19.5,4.04,11.5,20.1,1.64,15.9,12,> 100,30.9
